Measured values as given in US8569264B2, “Antibacterial 4,5-substituted aminoglycoside analogs having multiple substituents” (ISIS Pharmaceuticals, Inc., priority 2005, dated 2013).
≈ marks a conversion by molar mass, not a printed value. Like-named read-outs stand apart in the source and are kept apart here.

Legend:
S. Aureus = experiment: MIC, S. Aureus; type: cell-based
Procedure, shortened: (§1)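 Broth microdilution in duplicate, 150 μL: overnight-culture bacteria were added to compound in 4% DMSO in water. Final inoculum was about 10^5–10^6 CFU/well.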

[1] = system: Staphylococcus aureus (Smith Strain ATCC 13709); experiment: Staphylococcus aureus mouse protection assay; type: in vivo, mice; details: for # Dead mice/Total mice in group: Staph Conc. 10^6, 10% Mucin
Description: Two of the novel aminoglycoside compounds of the invention were examined for their anitbacterial activity against staphylococcus aureus. Mice were fed with autoclaved commercial food pellets and sterile water ad libitum. Animals were inoculated intraperitoneally with 0.5 mL/mouse of the indicated concentration of S. aureus (ATCC 13709) containing 10% mucin. There were 10 mice in each treatment group and compounds were administered subcutaneously one and 3 hour after infection. Compounds 15a (R4═R5═CH3) and 15j (R4═H, R5═(CH2)2C6H5)) were used at 75 mg/kg, 37.5 mg/kg, 18.8 mg/kg, 9.4 mg/kg, 4.7 mg/kg, 2.3 mg/kg, 1.17 mg/kg and 0.5 mg/kg. Amakacin, paromomycin and neomycin were used as the positive controls at concentrations of 2 mg/kg, 1 mg/kg and 0.5 mg/kg.
Test compound was administered as an aqueous buffer solution (phosphate buffered saline (PBS), pH=7.4).

P. aurginosa ATCC 25416 = experiment: MIC, P. aurginosa ATCC 25416; type: cell-based
Description: (§2) The MIC assays are carried out in 150 μL volume in duplicate in 96-well clear flat-bottom plates. The bacterial suspension from an overnight culture growth in appropriate medium is added to a solution of test compound in 4% DMSO in water. Final bacterial inoculum is approximately 10^5-10^6 CFU/well. […] Both ampicillin and tetracycline are used as antibiotic-positive controls in each screening assay for S. pyogenes, E. coli imp-, E. coli, S. aureus, E. faecalis, K. pneumoniae and P. vulgaris. Ciprofloxacin is used as an antibiotic positive control in each screening assay for P. aeruginosa.
(§3) The following compounds were prepared using methods illustrated in the previous examples. The compounds were also examined in standard bacterial assays against E. Coli, S. Aureus, P. aurginosa, K. pneumoniae, P. vulgaris, and A. baumannii to determine activities. Each of the bacterial cultures that are available from ATCC (www.atcc.org) is identified by its ATCC number. A. baumannii is gentamicin sensitive Acinetobacter baumannii #2 from Walter Reed.

E. Coli = experiment: MIC, E. Coli; type: cell-based
Procedure, shortened: as §1

[2] = system: E. coli S30 bacterial extract (pBestLuc firefly luciferase reporter); experiment: Coupled bacterial transcription/translation assay; type: biochemical; details: read-out: Trans/Trans IC50
Procedure, shortened: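 Coupled transcription/translation of firefly luciferase from 1 μg pBestLuc (tac promoter) in E. coli S30 extract, with or without test compound. Reaction 35 min at 37° C., then functional luciferase detected by luminescence.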

P. vulgaris ATCC 8427 = experiment: MIC, P. vulgaris ATCC 8427; type: cell-based
Description: as §2, §3

S. aureus ATCC 13709 = experiment: MIC, S. aureus ATCC 13709; type: cell-based
Description: as §2, §3

[3] = target: 16S ribosomal subunit RNA target; experiment: Mass spectrometry based binding assay (FTICR), 16S
Procedure, shortened: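 Binding to the 16S ribosomal subunit RNA target was measured by FTICR mass spectrometry. Ligands or ligand mixtures were prepared at several concentrations in 10 μL of aqueous 100 mM ammonium acetate buffer with 33% isopropyl alcohol. Samples were infused at 1 μL/min into a negative-mode electrospray source, and ions were held 1 sec in an RF-only hexapole. Complex/free RNA ratios versus ligand concentration were fitted to a binding polynomial to obtain KD.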

K. pneumoniae ATCC 10031 = experiment: MIC, K. pneumoniae ATCC 10031; type: cell-based
Description: as §2, §3

P. aurginosa ATCC 29248 = experiment: MIC, P. aurginosa ATCC 29248; type: cell-based
Description: as §2, §3

E. coli ATCC 25922 = experiment: MIC, E. coli ATCC 25922; type: cell-based
Description: as §2, §3

[4] = system: gentamicin sensitive Acinetobacter baumannii #2 from Walter Reed; experiment: MIC, A. baumannii WReed 2; type: cell-based
Description: as §2, §3

[5] = target: 18S ribosomal subunit RNA target; experiment: Mass spectrometry based binding assay (FTICR), 18S
Procedure, shortened: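 Ligands at varying concentrations were mixed with 2.5 or 5 μM RNA in 100 mM ammonium acetate with 33% isopropyl alcohol, then analysed by negative-mode ESI-FTICR. Complex/free RNA ion ratios plotted against ligand concentration were fitted to a second- or higher-order binding polynomial to give KD.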

[6] = Example 110, listed as 9p - sample 1
[7] = Example 110, listed as 9p - sample 2
[8] = 0.5 mg/kg subcutaneously, the 13th table
[9] = 1 mg/kg subcutaneously, the 13th table
[10] = 2 mg/kg subcutaneously, the 13th table

## NCC1OC(OC2C(CO)OC(OC3C(O)C(N)CC(N)C3OC3OC(CO)C(O)C(O)C3N)C2OCCNCCc2ccccc2)C(N)C(O)C1O (stereo not drawn) [Compound 9p]
S. Aureus; Example 105
  MIC S. Aureus: 0.3 to 0.6 µM
[1]; 0.1 mg/kg in PBS pH=7.4, the 14th table
  # Dead mice/Total mice in group: 5/10 (10% Mucin)
[1]; 0.5 mg/kg in PBS pH=7.4, the 14th table
  # Dead mice/Total mice in group: 0/10 (10% Mucin)
[1]; 1 mg/kg in PBS pH=7.4, the 14th table
  # Dead mice/Total mice in group: 0/10 (10% Mucin)
[1]; 2 mg/kg in PBS pH=7.4, the 14th table
  # Dead mice/Total mice in group: 0/10 (10% Mucin)
[1]; 4.5 mg/kg in PBS pH=7.4, the 14th table
  # Dead mice/Total mice in group: 0/10 (10% Mucin)
[1]; 9 mg/kg in PBS pH=7.4, the 14th table
  # Dead mice/Total mice in group: 0/10 (10% Mucin)
[1]; 18 mg/kg in PBS pH=7.4, the 14th table
  # Dead mice/Total mice in group: 0/10 (10% Mucin)
[1]; 37 mg/kg in PBS pH=7.4, the 14th table
  # Dead mice/Total mice in group: 0/10 (10% Mucin)
[1]; 75 mg/kg in PBS pH=7.4, the 14th table
  # Dead mice/Total mice in group: 0/10 (10% Mucin)
[1]; […] in PBS pH=7.4, the 14th table
  # Dead mice/Total mice in group: 1/10 (10% Mucin)
[1]; protective at doses as small as, summary of the 14th table
  smallest protective dose: 0.25 mg/kg
[1]; result in words, summary of the 14th table
  prevention of lethal bacterial infections in mice: effective at preventing lethal bacterial infections in mice
P. aurginosa ATCC 25416; Example 110
  MIC P. aurginosa ATCC 25416: >40 µM
P. aurginosa ATCC 25416; Example 111
  MIC P. aurginosa ATCC 25416: >40 µM
E. Coli; Example 105
  MIC E. Coli.: 3 to 6 µM
[2]; Example 105
  IC50: 1100 nM
P. vulgaris ATCC 8427; [6]
  MIC P. vulgaris ATCC 8427: 2.5-5^ uM
P. vulgaris ATCC 8427; [7]
  MIC P. vulgaris ATCC 8427: 20 to 40 µM
P. vulgaris ATCC 8427; Example 111
  MIC P. vulgaris ATCC 8427: >40 µM
S. aureus ATCC 13709; [6]
  MIC S. aureus ATCC 13709: 10 to 20 µM
S. aureus ATCC 13709; [7]
  MIC S. aureus ATCC 13709: 1.2 to 2.5 µM
S. aureus ATCC 13709; Example 111
  MIC S. aureus ATCC 13709: 0.6 to 1.3 µM
[3]; FTICR mass spectrometry, run at 100 nM RNA, Example 105
  Kd: 100 nM
K. pneumoniae ATCC 10031; [6]
  MIC K. pneumoniae ATCC 10031: 1.3 to 2.5 µM
K. pneumoniae ATCC 10031; [7]
  MIC K. pneumoniae ATCC 10031: >40 µM
K. pneumoniae ATCC 10031; Example 111
  MIC K. pneumoniae ATCC 10031: 2.5-5^ uM
P. aurginosa ATCC 29248; Example 110
  MIC P. aurginosa ATCC 29248: >40 µM
P. aurginosa ATCC 29248; Example 111
  MIC P. aurginosa ATCC 29248: >40 µM
E. coli ATCC 25922; [6]
  MIC E. coli ATCC 25922: 5 to 10 µM
E. coli ATCC 25922; [7]
  MIC E. coli ATCC 25922: >40 µM
E. coli ATCC 25922; Example 111
  MIC E. coli ATCC 25922: 5 to 10 µM
[4]; [6]
  MIC A. baumannii WReed 2: 2.5-5^ uM
[4]; [7]
  MIC A. baumannii WReed 2: >40 µM
[4]; Example 111
  MIC A. baumannii WReed 2: >40 µM
[5]; FTICR mass spectrometry, Example 105
  Kd: 1300 nM

## NCC1OC(OC2C(CO)OC(OC3C(O)C(N)CC(N)C3OC3OC(CNCCc4ccccc4)C(O)C(O)C3N)C2O)C(N)C(O)C1O (stereo not drawn) [Compound 15j]
S. Aureus; Example 108
  MIC S. Aureus: 0.3 to 0.6 µM
[1]; [8]
  # Dead mice/Total mice in group: 7/10
[1]; [9]
  # Dead mice/Total mice in group: 0/10
[1]; [10]
  # Dead mice/Total mice in group: 0/10
[1]; 4.5 mg/kg subcutaneously, the 13th table
  # Dead mice/Total mice in group: 0/10
[1]; 9 mg/kg subcutaneously, the 13th table
  # Dead mice/Total mice in group: 0/10
[1]; 18 mg/kg subcutaneously, the 13th table
  # Dead mice/Total mice in group: 0/10
[1]; 37 mg/kg subcutaneously, the 13th table
  # Dead mice/Total mice in group: 0/10
[1]; 75 mg/kg subcutaneously one and 3 hour after infection, intraperitoneal, the 13th table
  # Dead mice/Total mice in group: 0/10
P. aurginosa ATCC 25416; Example 110
  MIC P. aurginosa ATCC 25416: >40 µM
P. aurginosa ATCC 25416; Example 111
  MIC P. aurginosa ATCC 25416: >40 µM
E. Coli; Example 108
  MIC E. Coli.: 1.3 to 2.5 µM
[2]; Example 108
  IC50: 200 nM
P. vulgaris ATCC 8427; Example 110
  MIC P. vulgaris ATCC 8427: 1.3 to 2.5 µM
P. vulgaris ATCC 8427; Example 111
  MIC P. vulgaris ATCC 8427: >40 µM
S. aureus ATCC 13709; Example 110
  MIC S. aureus ATCC 13709: 10 to 20 µM
S. aureus ATCC 13709; Example 111
  MIC S. aureus ATCC 13709: 0.3 to 0.6 µM
[3]; Example 108
  Kd: 500 nM
K. pneumoniae ATCC 10031; Example 110
  MIC K. pneumoniae ATCC 10031: <0.6 µM
K. pneumoniae ATCC 10031; Example 111
  MIC K. pneumoniae ATCC 10031: 0.6 to 1.3 µM
P. aurginosa ATCC 29248; Example 110
  MIC P. aurginosa ATCC 29248: >40 µM
P. aurginosa ATCC 29248; Example 111
  MIC P. aurginosa ATCC 29248: >40 µM
E. coli ATCC 25922; Example 110
  MIC E. coli ATCC 25922: 1.3 to 2.5 µM
E. coli ATCC 25922; Example 111
  MIC E. coli ATCC 25922: 1.3 to 2.5 µM
[4]; Example 110
  MIC A. baumannii WReed 2: 1.3 to 2.5 µM
[4]; Example 111
  MIC A. baumannii WReed 2: 20 to 40 µM
[5]; Example 108
  Kd: 2200 nM

## NC[C@@H]1O[C@H](O[C@H]2[C@@H](O)[C@H](O[C@@H]3[C@@H](O)[C@H](N)C[C@H](N)[C@H]3O[C@H]3O[C@H](CO)[C@@H](O)[C@H](O)[C@H]3N)O[C@@H]2CO)[C@H](N)[C@@H](O)[C@@H]1O [paromomycin, reference compound]
S. Aureus; Staphylococcus aureus, Example 106
  MIC: 3 to 5 µM (≈ 1.85 to 3.08 µg/mL)
[1]; [8]
  # Dead mice/Total mice in group: 10/10
[1]; [9]
  # Dead mice/Total mice in group: 10/10
[1]; [10]
  # Dead mice/Total mice in group: 9/10
P. aurginosa ATCC 25416; Example 111
  MIC: > 40 µM
E. Coli; Escherichia coli, Example 106
  MIC: 20 to 40 µM (≈ 12.3 to 24.6 µg/mL)
[2]; Example 106
  IC50: 100 nM
P. vulgaris ATCC 8427; Proteus vulgaris, ATCC8427, Example 111
  MIC: > 40 µM
S. aureus ATCC 13709; Staphylococcus aureus, ATCC13709, Example 111
  MIC: 10 to 20 µM (≈ 6.16 to 12.3 µg/mL)
[3]; Example 106
  Kd: 600 nM
K. pneumoniae ATCC 10031; Klebsiella pneumoniae, ATCC10031, Example 111
  MIC: 0.6 to 1.3 µM (≈ 0.369 to 0.8 µg/mL)
P. aurginosa ATCC 29248; Example 111
  MIC: > 40 µM
E. coli ATCC 25922; Escherichia coli, ATCC25922, Example 111
  MIC: 5 to 10 µM (≈ 3.08 to 6.16 µg/mL)
[4]; Acinetobacter baumannii, Example 111
  MIC: 2.5 to 5 µM (≈ 1.54 to 3.08 µg/mL)
[5]; Example 106
  Kd: 4800 nM
